Data taken from patent publication US5876956A, “Methods for identification or purification of cells containing an enzymatic intracellular marker” (Johns Hopkins University School of Medicine, priority 1995, dated 1999).

Experiments:
[1] = tested on: Mouse CFU-S (day 8); assay: Mouse CFU-S (day 8) of bone marrow cells isolated by DAAA and flow cytometry; format: in vivo
Method: (§1) In an attempt to examine cytosolic ALDH on a single-cell basis, leukemia cell lines and bone marrow cells were incubated with the fluorescent substrate DAAA, washed, and subjected to flow cytometry. The cell lines and plastic nonadherent mononuclear marrow cells were incubated with 50 μM DAAA at 10^6 cells/ml for 30 minutes at 37° C. After washing twice, some mononuclear marrow cells were treated with fluorescent monoclonal antibodies (Becton-Dickinson, Mountain View, Calif.), as previously described ([…] et al., Blood 74:1517, 1989) to study cytosolic ALDH activity of CD34^+, CD19^+, and CD5^+ marrow cells. […] Dansyl fluorescence was excited at both 351.1 nm and 363.8 nm using a multiline ultraviolet filter, and was detected at 521 nm. Cytosolic ALDH activity was estimated by the corrected mean fluorescence intensity (MFI) ([…] et al., Blood 75:1947, 1990; […], 1989, supra] of dansyl staining, which equals the mean fluorescence of unstained cells subtracted from the mean fluorescence of cells treated with DAAA. The mean fluorescence level represents the average channel value for a given sample on the flow cytometer. To confirm that cellular dansyl fluorescence was the result of the activity of cytosolic ALDH, L1210/CPA cells were incubated with 50 μM 4-(diethylamino) benzaldehyde (DEAB) for 15 minutes at 37° C. prior to the DAAA incubations to inhibit cytosolic ALDH activity. […]

[2] = tested on: Mouse CFU-GM; assay: Growth of mouse bone marrow progenitors isolated by DAAA and flow cytometry; format: cell-based
Method: as §1

[3] = tested on: Human CFU-GM; assay: Growth of human bone marrow hematopoietic progenitors after DAAA and flow cytometry; format: cell-based
Method: In an attempt to examine cytosolic ALDH on a single-cell basis, leukemia cell lines and bone marrow cells were incubated with the fluorescent substrate DAAA, washed, and subjected to flow cytometry. The cell lines and plastic nonadherent mononuclear marrow cells were incubated with 50 μM DAAA at 10^6 cells/ml for 30 minutes at 37° C. After washing twice, some mononuclear marrow cells were treated with fluorescent monoclonal antibodies (Becton-Dickinson, Mountain View, Calif.), as previously described ([…] et al., Blood 74:1517, 1989) to study cytosolic ALDH activity of CD34^+, CD19^+, and CD5^+ marrow cells. The cells were sorted on a Epics 753 Dual Laser Flow Cytometer (Coulter Electronics, Hialeah, Fla.) equipped with two 90-5 water cooled argon lasers (Coherent, Palo Alto, Calif.). Dansyl fluorescence was excited at both 351.1 nm and 363.8 nm using a multiline ultraviolet filter, and was detected at 521 nm. Cytosolic ALDH activity was estimated by the corrected mean fluorescence intensity (MFI) ([…] et al., Blood 75:1947, 1990; […], 1989, supra] of dansyl staining, which equals the mean fluorescence of unstained cells subtracted from the mean fluorescence of cells treated with DAAA. The mean fluorescence level represents the average channel value for a given sample on the flow cytometer. To confirm that cellular dansyl fluorescence was the result of the activity of cytosolic ALDH, L1210/CPA cells were incubated with 50 μM 4-(diethylamino) benzaldehyde (DEAB) for 15 minutes at 37° C. prior to the DAAA incubations to inhibit cytosolic ALDH activity. […] (J. E. Russo et al., Biochem Pharmacol 37:1639, 1988) L1210/CPA cells were also incubated with 50 μM dansyl glycine (DG) alone (Sigma, St. Louis, Mo.) at 10^6 cells/ml for 30 minutes at 37° C. […] The data in Table 1 show the results of flow cytometry sorting of human and mouse marrow cells based on their fluorescence intensity after incubation with DAAA. The assays of progenitor content is also shown. Isolation of bone marrow cells with high ALDH expression by fluorescence sorting based on DAAA was enriched for hematopoietic progenitors capable of both in vitro and in vivo growth. The 5% of human bone marrow cells with highest dansyl fluorescence produced substantially more CFU-GM than the 5% of cells with lowest dansyl fluorescence (p=0.007, T-test). Similarly, using DAAA-derived fluorescence, it was possible to obtain a composition that is enriched for CFU-GM (p=0.03) and the more primitive CFU-S (p=0.01) from mouse bone marrow.

[4] = tested on: L1210/CPA cells; assay: Flow cytometry of dansyl fluorescence in cells incubated with the compound; format: cell-based, mouse; conditions: L1210/CPA cells incubated with 50 μM dansyl glycine alone, 10^6 cells/ml, 30 minutes, 37° C.; FIG. 1E
Method: In an attempt to examine cytosolic ALDH on a single-cell basis, leukemia cell lines and bone marrow cells were incubated with the fluorescent substrate DAAA, washed, and subjected to flow cytometry. The cell lines and plastic nonadherent mononuclear marrow cells were incubated with 50 μM DAAA at 10^6 cells/ml for 30 minutes at 37° C. After washing twice, some mononuclear marrow cells were treated with fluorescent monoclonal antibodies (Becton-Dickinson, Mountain View, Calif.), as previously described (M. B. Kastan et al., Blood 74:1517, 1989) to study cytosolic ALDH activity of CD34^+, CD19^+, and CD5^+ marrow cells. The cells were sorted on a Epics 753 Dual Laser Flow Cytometer (Coulter Electronics, Hialeah, Fla.) equipped with two 90-5 water cooled argon lasers (Coherent, Palo Alto, Calif.). Dansyl fluorescence was excited at both 351.1 nm and 363.8 nm using a multiline ultraviolet filter, and was detected at 521 nm. […]

[5] = tested on: cells; conditions: in vitro and in vivo; J. E. Russo et al., 1988; cited from earlier work
[6] = tested on: cytosolic ALDH; conditions: J. E. Russo et al., Biochem Pharmacol 37:1639, 1988; cited from earlier work
[7] = 5% cells with the highest fluorescence after DAAA
[8] = 5% of cells with the lowest fluorescence after DAAA

With `CN(C)c1cccc2c(S(=O)(=O)NCC=O)cccc12` [DAAA, N-dansyl aminoacetaldehyde] the “Colonies/10^5 cells, Mouse CFU-S (day 8), Dansyl+” value [1, 7] was 23.5 ± 1 Colonies/10^5 cells, the “Colonies/10^5 cells, Mouse CFU-S (day 8), Dansyl-” value [1, 8] was 7 ± 1.3 Colonies/10^5 cells and the “Colonies/10^5 cells, Mouse CFU-GM, Dansyl+” value [2, 7] was 800 ± 185 Colonies/10^5 cells. For the same molecule, the “Colonies/10^5 cells, Mouse CFU-GM, Dansyl-” value [2, 8] was 250 ± 60 Colonies/10^5 cells, the “Colonies/10^5 cells, Human CFU-GM, Dansyl+ MNMC” value [3, 7] was 216 ± 13 Colonies/10^5 cells and the “Colonies/10^5 cells, Human CFU-GM, Dansyl- MNMC” value [3, 8] was 67 ± 20 Colonies/10^5 cells. For the same molecule, the “harm to cells / progenitor growth after DAAA treatment” value ([3]; human bone marrow cells treated with DAAA and processed by flow cytometry (not sorted)) was “did not appear to harm cells” and the “Colonies/10^5 cells, Human CFU-GM, Stained MNMC” value ([3]; mononuclear marrow cells incubated with DAAA and processed (but not sorted) by flow cytometry, unstained MNMC 163 ± 5) was 155 ± 5 Colonies/10^5 cells.
For `CN(C)c1cccc2c(S(=O)(=O)NCC(=O)O)cccc12` [dansyl glycine], the “dansyl fluorescence of cells” value [4] was “no detectable fluorescence”.
For `CCN(CC)c1ccc(C=O)cc1` [DEAB, 4-(diethylamino) benzaldehyde], the toxicity to cells [5] is listed as “nontoxic to cells in vitro and in vivo” and the “inhibition of cytosolic ALDH” value [6] is listed as “specific, competitive inhibitor of cytosolic ALDH”.
